Series [1] deals with T1, chanoclavine synthase (EasC) from Claviceps fusiformis (EasCCf) (Claviceps fusiformis, UniProt A8C7R6).
T1 sequence (A8C7R6 1-479): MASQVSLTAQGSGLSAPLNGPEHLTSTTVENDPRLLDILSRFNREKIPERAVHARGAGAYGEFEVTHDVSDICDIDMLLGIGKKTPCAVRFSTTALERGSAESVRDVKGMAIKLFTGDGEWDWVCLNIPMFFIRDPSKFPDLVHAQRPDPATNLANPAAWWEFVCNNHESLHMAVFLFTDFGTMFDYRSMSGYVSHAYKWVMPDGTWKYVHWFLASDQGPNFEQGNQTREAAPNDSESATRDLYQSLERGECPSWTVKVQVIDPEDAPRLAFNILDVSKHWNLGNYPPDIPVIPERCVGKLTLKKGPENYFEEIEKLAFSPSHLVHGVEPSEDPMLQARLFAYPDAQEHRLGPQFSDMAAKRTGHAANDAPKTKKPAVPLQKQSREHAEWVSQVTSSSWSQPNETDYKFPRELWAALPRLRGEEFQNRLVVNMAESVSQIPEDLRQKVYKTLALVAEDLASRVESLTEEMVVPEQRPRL
Nature of the series: PCC conversion assay by LC–MS. Format: biochemical.

Series [2] deals with the molecule itself. Kind of series: cryo-EM structure.

A word on the IC50: it is the concentration that gives 50% inhibition. `NO` [NH2OH, hydroxylamine] showed an IC50 in series [1] of 720 µM.

B1: chanoclavine synthase (EasC) from Claviceps fusiformis (enzyme)
chain: MASQVSLTAQGSGLSAPLNGPEHLTSTTVENDPRLLDILSRFNREKIPERAVHARGAGAYGEFEVTHDVSDICDIDMLLGIGKKTPCAVRFSTTALERGSAESVRDVKGMAIKLFTGDGEWDWVCLNIPMFFIRDPSKFPDLVHAQRPDPATNLANPAAWWEFVCNNHESLHMAVFLFTDFGTMFDYRSMSGYVSHAYKWVMPDGTWKYVHWFLASDQGPNFEQGNQTREAAPNDSESATRDLYQSLERGECPSWTVKVQVIDPEDAPRLAFNILDVSKHWNLGNYPPDIPVIPERCVGKLTLKKGPENYFEEIEKLAFSPSHLVHGVEPSEDPMLQARLFAYPDAQEHRLGPQFSDMAAKRTGHAANDAPKTKKPAVPLQKQSREHAEWVSQVTSSSWSQPNETDYKFPRELWAALPRLRGEEFQNRLVVNMAESVSQIPEDLRQKVYKTLALVAEDLASRVESLTEEMVVPEQRPRL
One may read the stoichiometry N as a count of units in the complex or per binding partner. Regarding B1, the “stoichiometry N” value in series [2] was determined as 2.

Values taken from PMC12003167 (Nature, 2025).
